# How the values were obtained:
# [1] = tested on: PD1-ss+10aa/Gaussia Luciferase; experiment: Dox-Induced PD1-ss-Gluc Assay; type: cell-based; settings: 24 hr Dox induction; 293FRT/TO cells; read-out: 24 hr Dox Inducible PD1ssGluc 293FRT/TO: Mean IC50
# In short: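 The cell line was made by transfecting Flp-In 293 T-REx cells with a PD1 signal sequence+10aa–Gaussia luciferase fusion under T-REx control and selecting with hygromycin and blasticidin. Cells were seeded, and next day compound plus doxycycline was added at 37 °C, 5% CO2.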
# [2] = tested on: TNFα-FL/Gaussia Luciferase; experiment: Dox Induced TNFα-FL-Gluc Assay; type: cell-based; settings: for IC50: 24 hr Dox induction, 293FRT/TO cells, read-out: 24 hr Dox Inducible TNFaFLGluc 293FRT/TO: Mean IC50; for 24 hr Dox Inducible TNFaFLGluc 293FRT/TO: TNF/PD1: ratio of TNFaFLGluc IC50 to PD1ssGluc IC50
# In short: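 Cells are seeded one day ahead, then treated with compound plus doxycycline at 37 °C, 5% CO2. The stable Flp-In 293 T-REx line expresses full-length TNFα (amino acids 1-233) with Gaussia luciferase fused to its 3′ end, inducibly via T-REx.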
# [3] = tested on: HER3-ss+4aa/Gaussia Luciferase; experiment: Dox-Induced Her3-ss-Gluc Assay; type: cell-based; settings: 24 hr Dox induction; 293FRT/TO cells; read-out: 24 hr Dox Inducible Her3(ss + 4)Gluc 293FRT/TO: Mean IC50
# In short: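 Expression of a Gaussia luciferase reporter carrying the HER3 signal sequence plus 4 amino acids is induced by doxycycline in stably transfected Flp-In 293 T-REx cells. Compounds are added with doxycycline at 37° C., 5% CO2. Undefined stereocentres denote stereoisomer mixtures.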
# [4] = tested on: IL-2-FL/Gaussia Luciferase; experiment: Dox Induced IL2-FL-Gluc Assay; type: cell-based; settings: for IC50: 24 hr Dox induction, 293FRT/TO cells, read-out: 24 hr Dox Inducible IL2FLGluc 293FRT/TO: Mean IC50; for 24 hr Dox Inducible IL2FLGluc 293FRT/TO: IL2/PD1: ratio of IL2FLGluc IC50 to PD1ssGluc IC50
# In short: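 Reporter is Gaussia luciferase fused to the 3′ end of full-length IL-2 (aa 1-153), expressed from a doxycycline-inducible T-REx construct in stably selected Flp-In 293 cells. Compounds were co-added with doxycycline and incubated at 37° C, 5% CO2.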
# [5] = tested on: multiple myeloma cell line NCI-H929; experiment: H929 Cell Viability Assay; type: cell-based, human; settings: Homo sapiens, NCI-H929, 48 h, NCI-H929 cells, Celltiter-Glo
# In short: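 Plate the myeloma cells in RPMI 1640 with 10% FBS, add serially diluted compound, incubate for 48 hours at 37° C, then add CellTiter-Glo and read luciferase signal.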
# [6] = tested on: multiple myeloma cell line U266B1; experiment: U266 Cell Viability Assay; type: cell-based, human; settings: Homo sapiens, U-266, 48 h, U266B1 cells, Celltiter-Glo
# In short: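 48 h treatment, 37° C./5% CO2, RPMI 1640 + 10% FBS; viability by CellTiter-Glo luminescence.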
# [7] = Liver Microsome Stability Assay (rat); settings: rat liver microsomes, with NADPH, 1.0 uM compound
# Procedure: (§1) Stability of a compound was assessed in the presence of liver microsomes from various sources—mouse, rat, monkey and human liver microsomes. 1.0 uM compound, 0.4% DMSO in 0.1 M Potassium Phosphate with 1.0 mg/mL liver microsomes, were incubated at 37° C. with or without 1 mM NADPH. The samples were quenched at 0, and 30 minutes.
# [8] = Liver Microsome Stability Assay (mouse); settings: mouse liver microsomes, with NADPH, 1.0 uM compound
# Procedure: as §1
# [9] = Liver Microsome Stability Assay (human); settings: human liver microsomes, with NADPH, 1.0 uM compound
# Procedure: as §1
# [10] = Liver Microsome Stability Assay (monkey); settings: monkey liver microsomes, with NADPH, 1.0 uM compound
# Procedure: as §1
smiles,measurement,setting,value
"O=C1CCc2cc(N3CCC[C@@H]3c3csc(NC(=O)c4cccn4Cc4ccncc4)n3)ccc2N1 [Compound A75, (R)-N-(4-(1-(2-oxo-1,2,3,4-tetrahydroquinolin-6-yl)pyrrolidin-2-yl)thiazol-2-yl)-1-(pyridin-4-ylmethyl)-1H-pyrrole-2-carboxamide]",IC50,[1],2.5 nM
same,IC50,[2],71 nM
same,24 hr Dox Inducible TNFaFLGluc 293FRT/TO: TNF/PD1,[2],28.4
same,IC50,[3],0.6 nM
same,IC50,[4],8.11 nM
same,24 hr Dox Inducible IL2FLGluc 293FRT/TO: IL2/PD1,[4],3.2
same,EC50,[5],251 nM
same,EC50,[6],> 25000 nM
same,Liver Microsome Stability (Multiple Species): Rat - % Remaining after 30 min w/NADPH,[7],0.05%
same,Liver Microsome Stability (Multiple Species): Mouse - % Remaining after 30 min w/NADPH,[8],3.74%
same,Liver Microsome Stability (Multiple Species): Human - % Remaining after 30 min w/NADPH,[9],6.4%
same,Liver Microsome Stability (Multiple Species): Monkey - % Remaining after 30 min w/NADPH,[10],0.87%
"CN(C)c1cccc(-c2csc(NC(=O)c3cccn3Cc3ccncc3)n2)c1 [Compound A76, N-(4-(3-(dimethylamino)phenyl)thiazol-2-yl)-1-(pyridin-4-ylmethyl)-1H-pyrrole-2-carboxamide]",IC50,[1],292 nM
same,IC50,[2],6660 nM
same,24 hr Dox Inducible TNFaFLGluc 293FRT/TO: TNF/PD1,[2],22.9
same,IC50,[3],830 nM
same,IC50,[4],1510 nM
same,24 hr Dox Inducible IL2FLGluc 293FRT/TO: IL2/PD1,[4],5.2
same,EC50,[5],22400 nM
same,EC50,[6],> 25000 nM
same,Liver Microsome Stability (Multiple Species): Rat - % Remaining after 30 min w/NADPH,[7],4.99%
same,Liver Microsome Stability (Multiple Species): Mouse - % Remaining after 30 min w/NADPH,[8],11%
same,Liver Microsome Stability (Multiple Species): Human - % Remaining after 30 min w/NADPH,[9],2.44%
same,Liver Microsome Stability (Multiple Species): Monkey - % Remaining after 30 min w/NADPH,[10],1.43%
"CCc1ccc(N2CCC[C@@H]2c2csc(NC(=O)c3cccn3Cc3ccnc(F)c3)n2)cc1 [Compound A77, (R)-N-(4-(1-(4-ethylphenyl)pyrrolidin-2-yl)thiazol-2-yl)-1-((2-fluoropyridin-4-yl)methyl)-1H-pyrrole-2-carboxamide]",IC50,[1],1.84 nM
same,IC50,[2],19.1 nM
same,24 hr Dox Inducible TNFaFLGluc 293FRT/TO: TNF/PD1,[2],10.4
same,IC50,[3],3.62 nM
same,IC50,[4],3.22 nM
same,24 hr Dox Inducible IL2FLGluc 293FRT/TO: IL2/PD1,[4],1.8
same,EC50,[5],60.1 nM
same,EC50,[6],> 25000 nM
same,Liver Microsome Stability (Multiple Species): Rat - % Remaining after 30 min w/NADPH,[7],38.1%
same,Liver Microsome Stability (Multiple Species): Mouse - % Remaining after 30 min w/NADPH,[8],79.6%
same,Liver Microsome Stability (Multiple Species): Human - % Remaining after 30 min w/NADPH,[9],72.8%
same,Liver Microsome Stability (Multiple Species): Monkey - % Remaining after 30 min w/NADPH,[10],22.4%
"O=C(Nc1nc([C@H]2CCCN2c2ccc(CCO)cc2)cs1)c1cccn1Cc1ccnc(F)c1 [Compound A78, (R)-1-((2-fluoropyridin-4-yl)methyl)-N-(4-(1-(4-(2-hydroxyethyl)phenyl)pyrrolidin-2-yl)thiazol-2-yl)-1H-pyrrole-2-carboxamide]",IC50,[1],13.2 nM
same,IC50,[2],159 nM
same,24 hr Dox Inducible TNFaFLGluc 293FRT/TO: TNF/PD1,[2],12
same,IC50,[3],27.7 nM
same,IC50,[4],30.1 nM
same,24 hr Dox Inducible IL2FLGluc 293FRT/TO: IL2/PD1,[4],2.3
same,EC50,[5],495 nM
same,EC50,[6],> 25000 nM
same,Liver Microsome Stability (Multiple Species): Rat - % Remaining after 30 min w/NADPH,[7],3.42%
same,Liver Microsome Stability (Multiple Species): Mouse - % Remaining after 30 min w/NADPH,[8],6.09%
same,Liver Microsome Stability (Multiple Species): Human - % Remaining after 30 min w/NADPH,[9],6.01%
same,Liver Microsome Stability (Multiple Species): Monkey - % Remaining after 30 min w/NADPH,[10],3.13%
"CC(=O)N1CCC(Oc2ccc(N3CCC[C@@H]3c3csc(NC(=O)c4cccn4Cc4ccnc(F)c4)n3)cc2)C1 (stereo partly drawn) [Compound A79, N-(4-((2R)-1-(4-((1-acetylpyrrolidin-3-yl)oxy)phenyl)pyrrolidin-2-yl)thiazol-2-yl)-1-((2-fluoropyridin-4-yl)methyl)-1H-pyrrole-2-carboxamide]",IC50,[1],10.8 nM
same,IC50,[2],171 nM
same,24 hr Dox Inducible TNFaFLGluc 293FRT/TO: TNF/PD1,[2],15.9
same,IC50,[3],23.2 nM
same,IC50,[4],29.7 nM
same,24 hr Dox Inducible IL2FLGluc 293FRT/TO: IL2/PD1,[4],2.8
same,EC50,[5],345 nM
same,EC50,[6],> 25000 nM
same,Liver Microsome Stability (Multiple Species): Rat - % Remaining after 30 min w/NADPH,[7],37.7%
same,Liver Microsome Stability (Multiple Species): Mouse - % Remaining after 30 min w/NADPH,[8],5.88%
same,Liver Microsome Stability (Multiple Species): Human - % Remaining after 30 min w/NADPH,[9],5.48%
same,Liver Microsome Stability (Multiple Species): Monkey - % Remaining after 30 min w/NADPH,[10],0.78%
"O=C(Nc1nc([C@H]2CCCN2c2ccc(OC3CCNC3)cc2)cs1)c1cccn1Cc1ccnc(F)c1 (stereo partly drawn) [Compound A80, 1-((2-fluoropyridin-4-yl)methyl)-N-(4-((2R)-1-(4-(pyrrolidin-3-yloxy)phenyl)pyrrolidin-2-yl)thiazol-2-yl)-1H-pyrrole-2-carboxamide]",IC50,[1],595 nM
same,IC50,[2],11400 nM
same,24 hr Dox Inducible TNFaFLGluc 293FRT/TO: TNF/PD1,[2],19.1
same,IC50,[3],1070 nM
same,IC50,[4],1840 nM
same,24 hr Dox Inducible IL2FLGluc 293FRT/TO: IL2/PD1,[4],3.1
same,EC50,[5],5730 nM
same,EC50,[6],7780 nM
same,Liver Microsome Stability (Multiple Species): Rat - % Remaining after 30 min w/NADPH,[7],88.1%
same,Liver Microsome Stability (Multiple Species): Mouse - % Remaining after 30 min w/NADPH,[8],71.9%
same,Liver Microsome Stability (Multiple Species): Human - % Remaining after 30 min w/NADPH,[9],51%
same,Liver Microsome Stability (Multiple Species): Monkey - % Remaining after 30 min w/NADPH,[10],17.6%
"CC(=O)N1CC(Oc2ccc(N3CCC[C@@H]3c3csc(NC(=O)c4cccn4Cc4ccnc(F)c4)n3)cc2)C1 [Compound A81, (R)-N-(4-(1-(4-((1-acetylazetidin-3-yl)oxy)phenyl)pyrrolidin-2-yl)thiazol-2-yl)-1-((2-fluoropyridin-4-yl)methyl)-1H-pyrrole-2-carboxamide]",IC50,[1],14 nM
same,IC50,[2],143 nM
same,24 hr Dox Inducible TNFaFLGluc 293FRT/TO: TNF/PD1,[2],10.2
same,IC50,[3],23.7 nM
same,IC50,[4],41.5 nM
same,24 hr Dox Inducible IL2FLGluc 293FRT/TO: IL2/PD1,[4],3
same,EC50,[5],679 nM
same,EC50,[6],> 25000 nM
same,Liver Microsome Stability (Multiple Species): Rat - % Remaining after 30 min w/NADPH,[7],68.9%
same,Liver Microsome Stability (Multiple Species): Mouse - % Remaining after 30 min w/NADPH,[8],39.5%
same,Liver Microsome Stability (Multiple Species): Human - % Remaining after 30 min w/NADPH,[9],12.8%
same,Liver Microsome Stability (Multiple Species): Monkey - % Remaining after 30 min w/NADPH,[10],8.77%
"CC(=O)N1CC=C(Oc2ccc(N3CCC[C@@H]3c3csc(NC(=O)c4cccn4Cc4ccnc(F)c4)n3)cc2)CC1 [Compound A82, (R)-N-(4-(1-(4-((1-acetyl-1,2,3,6-tetrahydropyridin-4-yl)oxy)phenyl)pyrrolidin-2-yl)thiazol-2-yl)-1-((2-fluoropyridin-4-yl)methyl)-1H-pyrrole-2-carboxamide]",IC50,[1],78.6 nM
same,IC50,[2],653 nM
same,24 hr Dox Inducible TNFaFLGluc 293FRT/TO: TNF/PD1,[2],8.31
same,IC50,[3],210 nM
same,IC50,[4],249 nM
same,24 hr Dox Inducible IL2FLGluc 293FRT/TO: IL2/PD1,[4],3.2
same,EC50,[5],5660 nM
same,EC50,[6],> 25000 nM
same,Liver Microsome Stability (Multiple Species): Rat - % Remaining after 30 min w/NADPH,[7],15.3%
same,Liver Microsome Stability (Multiple Species): Mouse - % Remaining after 30 min w/NADPH,[8],0.84%
same,Liver Microsome Stability (Multiple Species): Human - % Remaining after 30 min w/NADPH,[9],3.95%
same,Liver Microsome Stability (Multiple Species): Monkey - % Remaining after 30 min w/NADPH,[10],0.16%
CC(=O)N1CCC[C@@H](Oc2ccc(N3CCC[C@@H]3c3csc(NC(=O)c4cccn4Cc4ccnc(F)c4)n3)cc2)C1 [Compound A83],IC50,[1],82.1 nM
same,IC50,[2],1530 nM
same,24 hr Dox Inducible TNFaFLGluc 293FRT/TO: TNF/PD1,[2],18.6
same,IC50,[3],249 nM
same,IC50,[4],232 nM
same,24 hr Dox Inducible IL2FLGluc 293FRT/TO: IL2/PD1,[4],2.8
same,EC50,[5],4000 nM
same,EC50,[6],> 25000 nM
same,Liver Microsome Stability (Multiple Species): Rat - % Remaining after 30 min w/NADPH,[7],16.6%
same,Liver Microsome Stability (Multiple Species): Mouse - % Remaining after 30 min w/NADPH,[8],0.55%
same,Liver Microsome Stability (Multiple Species): Human - % Remaining after 30 min w/NADPH,[9],0.64%
same,Liver Microsome Stability (Multiple Species): Monkey - % Remaining after 30 min w/NADPH,[10],0.16%

# Reference: US20230286973A1, “PROTEIN SECRETION INHIBITORS” (KEZAR LIFE SCIENCES, priority 2020, published 2023)
